According to US20250276960A1, “CRYSTALLINE FORMS OF (R)-6-CHLORO-3-((1-(2-CYANO-7-METHYL-3-MORPHOLINOQUINOXALIN-5-YL)ETHYL)AMINO)PICOLINIC ACID” (MIRATI THERAPEUTICS, INC., priority 2024, published 2025):
pIC50: −log10 of the molar value. Values after ≈ are worked out from the molar mass of the structure shown.

Tests used:
[1] = Solubility of amorphous solids of Compound 1 in single solvents at room temperature; format: physicochemical
Experimental: The amorphous solids of Compound 1 as prepared in Example 1 was measured in 20 single solvents at room temperature and crystallization screening was then conducted in the same set of solvents. For each solvent tested, a slurry of the amorphous solids and the solvent was prepared with a […] and the amorphous solids were allowed to dissolve. The slurry was then agitated with a stir bar for approximately 1 hour at room temperature. The wet solids were then analyzed by powder X-ray diffraction (PXRD). The solids were collected and dried under vacuum for 1 day and the crystalline form was confirmed by PXRD. Only one crystalline form was obtained and designated as Form 1.

[2] = test system: T47D (H1047R mutant) cells; assay: CellTiter-Glo 2.0 cell viability assay, T47D; format: cell-based; details: Homo sapiens, 72 hours, CTG
Experimental: (§1) The ability of a Compound 1 to inhibit the formation of pAKT was measured using alphaLISA Surefire Ultra AKT 1/2/3 (pS473) Assay Kit (#ALSU-PAKT-B50K) was obtained from Perkin Elmer (Waltham, MA). The ability of Compound 1 to decrease the viability of cells was measured using CellTiter-Glo 2.0 (CTG) Luminescent Cell Viability Assay (#G9241) obtained from Promega (Madison, WI).
To prepare assay plates for viability assays, cells were trypsinized, resuspended in fresh media, and viable cells were counted utilizing trypan blue exclusion. […]
Assay day 1, cells were dosed using an Echo Liquid Handler (Beckman Coulter) with compounds at a 10 μm starting concentration and serially diluted (1:4) for a total of 10concentrations. […] After 72 hours of treatment, cell plates were equilibrated to room temperature before adding 15 μl of CTG to each well, plates were then covered in aluminum foil to protect from light, incubated at room temperature for 30 minutes on a microtiter plate shaker, and luminescence readings were collected using a CLARIOstar microplate reader (BMG Labtech, Germany). Percent of vehicle control values were plotted as log (inhibitor) vs. response-Variable slope (four parameters) for curve fitting and IC50 values were determined using XLfit.

[3] = Thermal stability (DSC/TGA) of crystalline form; format: physicochemical; details: crystalline form (Form 1)
Experimental: (§2) The crystalline form of Compound 1 is highly crystalline and has a needle/thin rod-like morphology. FIG. 2A and 2B are polarized light microscopy (PLM) images of this crystalline form of Compound 1. Additionally, the crystalline form of Compound 1 was characterized by PXRD, DSC, TGA, ^1H-NMR, HPLC, and DVS. The solvent used for the ^1H-NMR was methanol.
(§3) The crystalline form has a high melting temperature (˜177-180° C.) with no thermal degradation until >210° C. The crystalline form appears to be an anhydrous form and is non-hygroscopic. The crystalline form was analyzed by PXRD before and after DVS.

[4] = Dynamic vapor sorption (DVS) of crystalline form; format: physicochemical; details: crystalline form (Form 1)
Experimental: as §2, §3

[5] = test system: phospho-AKT (pAKT) in T47D (H1047R) cells; assay: pAKT alphaLISA Surefire Ultra AKT 1/2/3 (pS473) assay in T47D cells; format: cell-based; details: Homo sapiens, 24 hr treatment
Experimental: as §1
To prepare assay plates for pAKT alphaLISA assays, cells were trypsinized, resuspended in fresh media, and viable cells were counted utilizing trypan blue exclusion. Prior to seeding, cells were washed with PBS and resuspended in HBSS (Gibco, #14025092). […]
Immediately after seeding, cells were dosed using an Echo Liquid Handler (Beckman Coulter) with compounds at a 10.4 μm starting concentration and serially diluted (1:4) for a total of 10concentrations. […] Plates were then imaged the following day using a CLARIOstar microplate reader (BMG Labtech, Germany).
Percent of control values were calculated by subtracting the average signal from the positive control (alpelisib) treated wells from all treated wells (including DMSO control wells) and then divided by the average signal from the vehicle DMSO treated control wells. Percent of vehicle control values were plotted as log (inhibitor) vs. response-Variable slope (four parameters) for curve fitting and IC50 values were determined using XLfit.

For Cc1cc([C@@H](C)Nc2ccc(Cl)nc2C(=O)O)c2nc(N3CCOCC3)c(C#N)nc2c1 [Compound 1, (R)-6-chloro-3-((1-(2-cyano-7-methyl-3-morpholinoquinoxalin-5-yl)ethyl)amino) picolinic acid], which solubility ([1]; organic solvent or mixture, thermodynamic from solid, 1,4-Dioxane) is on record?
The solubility was > 221 mg/mL.

And the solubility ([1]; organic solvent or mixture, thermodynamic from solid, 2-MeTHF)?
Its solubility is > 230 mg/mL.

And the solubility ([1]; organic solvent or mixture, thermodynamic from solid, ACN)?
Its solubility is > 202 mg/mL.

What about the solubility ([1]; organic solvent or mixture, thermodynamic from solid, DCM) of the same molecule?
The solubility was > 192 mg/mL.

And the solubility ([1]; organic solvent or mixture, thermodynamic from solid, DMF)?
The solubility was > 216 mg/mL.

What about the solubility ([1]; organic solvent or mixture, thermodynamic from solid, DMSO) of the same molecule?
The solubility was > 241 mg/mL.

And the solubility ([1]; organic solvent or mixture, thermodynamic from solid, EtOAc)?
Its solubility is > 204 mg/mL.

And the solubility ([1]; organic solvent or mixture, thermodynamic from solid, EtOH)?
The solubility was 43 to 53.7 mg/mL (≈ 94.9 to 119 mM).

And the solubility ([1]; organic solvent or mixture, thermodynamic from solid, IPA)?
The solubility was 14.4 to 16.8 mg/mL (≈ 31.8 to 37.1 mM).

What about the solubility ([1]; organic solvent or mixture, thermodynamic from solid, IPAc) of the same molecule?
Its solubility is > 221 mg/mL.

And the solubility ([1]; organic solvent or mixture, thermodynamic from solid, MEK)?
The solubility was > 191 mg/mL.

And the solubility ([1]; organic solvent or mixture, thermodynamic from solid, MIBK)?
Its solubility is > 189 mg/mL.

And the solubility ([1]; organic solvent or mixture, thermodynamic from solid, MTBE)?
Its solubility is 102 to 221 mg/mL (≈ 226 to 488 mM).

What about the solubility ([1]; organic solvent or mixture, thermodynamic from solid, MeOH) of the same molecule?
Its solubility is > 210 mg/mL.

What about the solubility ([1]; organic solvent or mixture, thermodynamic from solid, THF) of the same molecule?
The solubility was > 215 mg/mL.

What about the solubility ([1]; organic solvent or mixture, thermodynamic from solid, acetone) of the same molecule?
Its solubility is > 230 mg/mL.

And the solubility ([1]; organic solvent or mixture, thermodynamic from solid, heptane)?
The solubility was < 1.3 mg/mL.

And the solubility ([1]; organic solvent or mixture, thermodynamic from solid, nPA)?
Its solubility is 47.1 to 58.9 mg/mL (≈ 104 to 130 mM).

And the solubility ([1]; organic solvent or mixture, thermodynamic from solid, toluene)?
Its solubility is > 204 mg/mL.

What about the solubility ([1]; thermodynamic from solid, water) of the same molecule?
Its solubility is < 1.3 mg/mL.

And the pIC50 [2]?
Its pIC50 is 7.62.

What about the “Temperature until which no thermal degradation” value [3] of the same molecule?
Its value is > 210 °C.

And the “Form change by PXRD before and after DVS” value [4]?
Its value is “no form change”.

And the “Hygroscopicity (DVS)” value [4]?
The value was “non-hygroscopic”.

And the “DVS weight gain at 80% RH” value ([4]; 80% RH)?
The value was 0.11%.

And the pIC50 [5]?
Its pIC50 is 8.74.
